Laboratory results reported in patent US9187472B2 (AbbVie Inc., priority 2012, dated 2015).

Experiments:
[1] = system: PC3 cells; test: NAMPT Cell Proliferation Assay; format: cell-based; settings: Homo sapiens, PC-3, 120 h, 5 days incubation, cell viability by Cell Titer Glo
Method in brief: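 Proliferation of PC3 cells treated 5 days with a 10-fold compound series (top 10 μM) was quantified by Cell Titer Glo luminescence; IC50s were fitted from percent inhibition.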

[2] = target: NAMPT (human, recombinant, C-terminally His-tagged) (Homo sapiens, UniProt P43490); test: Time-Resolved Fluorescence Resonance Energy Transfer (TR-FRET) Binding Assay of NAMPT; settings: without substrates; 6.8 nM NAMPT, 200 nM probe, 3 hours equilibration
Method in brief: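 In a displacement format, the nicotinamide-site tracer at 200 nM competed with test compound for 6.8 nM enzyme detected via 1 nM terbium anti-His antibody; incubation lasted 3 hours at room temperature in 50 mM HEPES pH 7.5, 100 mM NaCl. Normalized 520/495 nm emission ratios gave IC50 values.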

[3] = target: NAMPT (Homo sapiens, UniProt P43490); test: TR-FRET Binding Assay of NAMPT with PRPP; settings: with 200 μM PRPP and 2.5 mM ATP; 2 nM NAMPT, 2 nM probe, 16 hours equilibration
Method in brief: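 Substrate-containing variant: 200 μM PRPP plus 2.5 mM ATP are added to 2 nM NAMPT and 2 nM probe, with a 16-hour incubation ahead of TR-FRET reading.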

Chain of NAMPT (P43490 whole entry): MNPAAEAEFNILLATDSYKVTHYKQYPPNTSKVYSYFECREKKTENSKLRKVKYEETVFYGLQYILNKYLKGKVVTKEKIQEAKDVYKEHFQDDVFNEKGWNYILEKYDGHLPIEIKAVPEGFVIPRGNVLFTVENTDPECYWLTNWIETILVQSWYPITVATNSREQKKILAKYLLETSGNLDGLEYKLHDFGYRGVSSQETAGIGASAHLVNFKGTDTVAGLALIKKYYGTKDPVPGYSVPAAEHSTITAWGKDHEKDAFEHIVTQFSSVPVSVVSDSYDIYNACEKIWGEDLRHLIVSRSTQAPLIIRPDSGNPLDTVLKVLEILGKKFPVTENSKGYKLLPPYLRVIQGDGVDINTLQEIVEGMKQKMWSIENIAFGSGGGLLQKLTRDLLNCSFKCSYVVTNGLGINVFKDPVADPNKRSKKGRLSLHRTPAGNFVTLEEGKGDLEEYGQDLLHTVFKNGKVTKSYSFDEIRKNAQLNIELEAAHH
Chain of NAMPT (human, recombinant, C-terminally His-tagged) (P43490 whole entry): as above

SMILES	IC50 [1] [nM]	IC50 [2] [nM]	IC50 [3] [nM]
O=C(NCc1ccn2ccnc2c1)Nc1ccc(OC2CN(C(=O)[C@@H]3CCCO3)C2)cc1 [Example 432, 1-(imidazo[1,2-a]pyridin-7-ylmethyl)-3-[4-({1-[(2S)-tetrahydrofuran2-ylcarbonyl]azetidin-3-yl}oxy)phenyl]urea]	36.3	304	0.33
O=C(NCc1ccn2ccnc2c1)c1ccc(O[C@H]2CCN(C(=O)CC3CCOCC3)C2)cc1 [Example 343, N-(imidazo[1,2-a]pyridin-7-ylmethyl)-4-{[(3S)-1-(tetrahydro-2H-pyran-4-ylacetyl)pyrrolidin-3-yl]oxy}benzamide]	6530	> 10000	0.456
O=C(NCc1ccn2ccnc2c1)Nc1ccc(OC2CCN(C(=O)CC3CC3)CC2)cc1 [Example 444, 1-(4-{[1-(cyclopropylacetyl)piperidin-4-yl]oxy}phenyl)-3-(imidazo[1,2-a]pyridin-7-ylmethyl)urea]	69.9	156	0.244
COCCC(=O)N(CC1CCOCC1)c1ncc(C(=O)NCc2ccc3nccn3c2)s1 [Example 142, N-(imidazo[1,2-a]pyridin-6-ylmethyl)-2-[(3-methoxypropanoyl)(tetrahydro-2H-pyran-4-ylmethyl)amino]-1,3-thiazole-5-carboxamide]	18.2	1430	3.05
CC1(Cn2cc(-c3ccc(C(=O)NCc4ccn5ccnc5c4)o3)cn2)CCOCC1 [Example 734, N-(imidazo[1,2-a]pyridin-7-ylmethyl)-5-{1-[(4-methyltetrahydro-2H-pyran-4-yl)methyl]-1H-pyrazol-4-yl}furan-2-carboxamide]	0.553	14.2	0.605
O=C(NCc1ccn2ccnc2c1)c1ccc(C2CCN(C(=O)c3ccccc3OC(F)(F)F)CC2)cc1 [Example 706, N-(imidazo[1,2-a]pyridin-7-ylmethyl)-4-{1-[2-(trifluoromethoxy)benzoyl]piperidin-4-yl}benzamide]	6.54	84.1	0.937
CC(C)(C)OC(=O)N1CCC(c2ccc(C(=O)NCc3cn4ccnc4cn3)cc2)CC1 [Example 678, tert-butyl 4-{4-[(imidazo[1,2-a]pyrazin-6-ylmethyl)carbamoyl]phenyl}piperidine-1-carboxylate]	15.1	41.2	0.23
CC(C)OC[C@@H]1CN(c2ncc(C(=O)NCc3ccn4ccnc4c3)s2)C(=O)O1 [Example 255, N-(imidazo[1,2-a]pyridin-7-ylmethyl)-2-{(5S)-2-oxo-5-[(propan-2-yloxy)methyl]-1,3-oxazolidin-3-yl}-1,3-thiazole-5-carboxamide]	4290	8190	2.22
CC(C)(O)CNC(=O)c1ccc(NC(=O)Nc2ccc3nccn3c2)cc1 [Example 13, N-(2-hydroxy-2-methylpropyl)-4-[(imidazo[1,2-a]pyridin-6-ylcarbamoyl)amino]benzamide]	1170	653	0.663
Cc1ccc(C(=O)N2CCC(c3ccc(C(=O)NCc4ccn5ccnc5c4)s3)C2)cc1 (stereo not drawn) [Example 718, N-(imidazo[1,2-a]pyridin-7-ylmethyl)-5-[1-(4-methylbenzoyl)pyrrolidin-3-yl]thiophene-2-carboxamide]	1.25	23.6	0.755
CC1(C(=O)N2CC(c3ccc(C(=O)NCc4ccn5ccnc5c4)cc3)C2)CCCCC1 [Example 665, N-(imidazo[1,2-a]pyridin-7-ylmethyl)-4-{1-[(1-methylcyclohexyl)carbonyl]azetidin-3-yl}benzamide]	7.28	123	0.357
CC(C)OCC(=O)N1CC=C(c2ccc(C(=O)NCc3ccc4nccn4c3)cc2)CC1 [Example 98, N-(imidazo[1,2-a]pyridin-6-ylmethyl)-4-{1-[(propan-2-yloxy)acetyl]-1,2,3,6-tetrahydropyridin-4-yl}benzamide]	19.4	120	0.367

Continued by falling IC50 [1], values first:

IC50 [1] [nM]	IC50 [2] [nM]	IC50 [3] [nM]	SMILES
5140	322	4.19	CC(C)(C)OC(=O)N1CCC(c2ccc(C(=O)NCc3ccn4ncnc4c3)cc2)CC1 [Example 563, tert-butyl 4-{4-[([1,2,4]triazolo[1,5-a]pyridin-7-ylmethyl)carbamoyl]phenyl}piperidine-1-carboxylate]
973	60.9	0.991	O=C(NCCCCC1CCN(C(=O)c2ccccc2)CC1)Nc1ccn2ccnc2c1 [Example 270, 1-[4-(1-benzoylpiperidin-4-yl)butyl]-3-imidazo[1,2-a]pyridin-7-ylurea]
915	3220	1.26	CC(=O)N1CCC(Oc2ccc(C(=O)NCc3ccc4nccn4c3)cc2)CC1 [Example 160, 4-[(1-acetylpiperidin-4-yl)oxy]-N-(imidazo[1,2-a]pyridin-6-ylmethyl)benzamide]
635	1310	2.89	O=C(NCc1ccc2nccn2c1)c1ccc(OC2CCN(C(=O)C3CC3)CC2)cc1 [Example 161, 4-{[1-(cyclopropylcarbonyl)piperidin-4-yl]oxy}-N-(imidazo[1,2-a]pyridin-6-ylmethyl)benzamide]
211	23.8	3.43	O=C(CC1CCCC1)Nc1ccc(NC(=O)NCc2ccn3ncnc3c2)cc1 [Example 564, 2-cyclopentyl-N-(4-{[([1,2,4]triazolo[1,5-a]pyridin-7-ylmethyl)carbamoyl]amino}phenyl)acetamide]
203	661	1.06	O=C(NCc1ccn2ccnc2c1)c1ccc(C2CN(C(=O)c3cc(F)cc(F)c3)C2)cc1 [Example 648, 4-[1-(3,5-difluorobenzoyl)azetidin-3-yl]-N-(imidazo[1,2-a]pyridin-7-ylmethyl)benzamide]
105	904	0.736	O=C(NCc1ccn2ccnc2c1)c1ccc(C2CCN(C(=O)C3CCS(=O)(=O)CC3)CC2)cc1 [Example 234, 4-{1-[(1,1-dioxidotetrahydro-2H-thiopyran-4-yl)carbonyl]piperidin-4-yl}-N-(imidazo[1,2-a]pyridin-7-ylmethyl)benzamide]
65.9	243	0.266	CC(C)C(=O)N1CC=C(c2ccc(NC(=O)Nc3ccc4nccn4c3)cc2)CC1 [Example 38, 1-imidazo[1,2-a]pyridin-6-yl-3-{4-[1-(2-methylpropanoyl)-1,2,3,6-tetrahydropyridin-4-yl]phenyl}urea]
52.9	333	0.253	O=C(NCc1ccn2ccnc2c1)c1ccc(C2CCN(C(=O)C3CC3)CC2)cc1 [Example 531, 4-[1-(cyclopropylcarbonyl)piperidin-4-yl]-N-(imidazo[1,2-a]pyridin-7-ylmethyl)benzamide]
43.6	706	0.978	CC1CC1C(=O)N1CC(c2ccc(C(=O)NCc3ccn4ccnc4c3)cc2)C1 (stereo not drawn) [Example 628, N-(imidazo[1,2-a]pyridin-7-ylmethyl)-4-{1-[(2-methylcyclopropyl)carbonyl]azetidin-3-yl}benzamide]
25.3	114	5.42	CC(C)(O)Cn1cc(-c2ccc(C(=O)NCc3ccc4ncnn4c3)s2)cn1 [Example 621, 5-[1-(2-hydroxy-2-methylpropyl)-1H-pyrazol-4-yl]-N-([1,2,4]triazolo[1,5-a]pyridin-6-ylmethyl)thiophene-2-carboxamide]
9.57	116	0.5	O=C(NCc1ccn2ccnc2c1)c1ccc(C2CCN(C(=O)c3cnccn3)C2)s1 (stereo not drawn) [Example 792, N-(imidazo[1,2-a]pyridin-7-ylmethyl)-5-[1-(pyrazin-2-ylcarbonyl)pyrrolidin-3-yl]thiophene-2-carboxamide]
6.71	54.8	0.327	CC(C)(C)OC(=O)N1CC(c2ccc(C(=O)NCc3ccn4ccnc4c3)cc2)C1 [Example 402, tert-butyl 3-{4-[(imidazo[1,2-a]pyridin-7-ylmethyl)carbamoyl]phenyl}azetidine-1-carboxylate]
5.72	63	0.482	O=C(NCc1ccc2nccn2c1)c1ccc(-c2cnn(CC3CCOC3)c2)s1 (stereo not drawn) [Example 200, N-(imidazo[1,2-a]pyridin-6-ylmethyl)-5-[1-(tetrahydrofuran-3-ylmethyl)-1H-pyrazol-4-yl]thiophene-2-carboxamide]
5.1	62.7	0.231	O=C(NCc1ccn2ccnc2c1)c1ccc(C2CCN(C(=O)C3CCOC3)CC2)s1 (stereo not drawn) [Example 261, N-(imidazo[1,2-a]pyridin-7-ylmethyl)-5-[1-(tetrahydrofuran-3-ylcarbonyl)piperidin-4-yl]thiophene-2-carboxamide]
0.435	15.6	0.705	O=C(NCc1ccn2ccnc2c1)c1ccc(C2CCN(C(=O)c3ccccc3Cl)C2)s1 (stereo not drawn) [Example 757, 5-[1-(2-chlorobenzoyl)pyrrolidin-3-yl]-N-(imidazo[1,2-a]pyridin-7-ylmethyl)thiophene-2-carboxamide]
